Our source for the % of control, % of inhibition and % of activity values is ChEMBL document CHEMBL5465560, “Selectivity Literature for EUbOPEN Chemogenomic Library” (2024).

Molecules are shown by their SMILES.

Experiment [1] concerns the target Serine/threonine-protein kinase 16 (Homo sapiens, UniProt O75716). Nature of the experiment: Selectivity interaction (KinomeScan (DiscoverX)) EUB0000666a STK16. As to conditions: at 10 µM.
Experiment [2] concerns the target Glycogen synthase kinase-3 alpha (Homo sapiens, UniProt P49840). Nature of the experiment: Selectivity interaction (ActivX KiNativ screen (ex vivo kinase selectivity in human PBMCs)) EUB0001619a GSK3A. To be noted: PBMC, at 1 µM. The experiment is classed as cell-based.
For experiment [3], the target named is Wee1-like protein kinase (Homo sapiens) (UniProt P30291). Nature of the experiment: Selectivity interaction (ActivX KiNativ screen (kinase selectivity in THP-1 cell lysates)) EUB0000639a WEE1. It counts as subcellular. As to conditions: lysate.
The next experiment deals with SRSF protein kinase 1 (Homo sapiens, UniProt Q96SB4). Description: Selectivity interaction (ActivX KiNativ screen (kinase selectivity in THP-1 cell lysates)) EUB0000639a SRPK1. It counts as subcellular. As to conditions: lysate, at 5 µM.
The target in experiment [4] is Serine/threonine-protein kinase B-raf (Homo sapiens) (UniProt P15056). Nature of the experiment: Selectivity interaction (Kinase panel (Invitrogen)) EUB0000639a BRAF. As to conditions: at 200 nM.
The target in experiment [5] is TRAF2 and NCK-interacting protein kinase (Homo sapiens) (UniProt Q9UKE5). As to conditions: at 10 µM.
In experiment [6] the target is Wee1-like protein kinase 2 (Homo sapiens) (UniProt P0C1S8). Description: Selectivity interaction (KinomeScan (DiscoverX)) EUB0001049a WEE2. As to conditions: at 1 µM.
In the next experiment the target is Focal adhesion kinase 1 (Homo sapiens, UniProt Q05397). Nature of the experiment: Selectivity interaction (ProQinase) EUB0000171b PTK2.
In experiment [7] the target is T1, Mitogen-activated protein kinase kinase kinase 15 (Homo sapiens) (UniProt Q6ZN16).
T1 sequence (whole entry): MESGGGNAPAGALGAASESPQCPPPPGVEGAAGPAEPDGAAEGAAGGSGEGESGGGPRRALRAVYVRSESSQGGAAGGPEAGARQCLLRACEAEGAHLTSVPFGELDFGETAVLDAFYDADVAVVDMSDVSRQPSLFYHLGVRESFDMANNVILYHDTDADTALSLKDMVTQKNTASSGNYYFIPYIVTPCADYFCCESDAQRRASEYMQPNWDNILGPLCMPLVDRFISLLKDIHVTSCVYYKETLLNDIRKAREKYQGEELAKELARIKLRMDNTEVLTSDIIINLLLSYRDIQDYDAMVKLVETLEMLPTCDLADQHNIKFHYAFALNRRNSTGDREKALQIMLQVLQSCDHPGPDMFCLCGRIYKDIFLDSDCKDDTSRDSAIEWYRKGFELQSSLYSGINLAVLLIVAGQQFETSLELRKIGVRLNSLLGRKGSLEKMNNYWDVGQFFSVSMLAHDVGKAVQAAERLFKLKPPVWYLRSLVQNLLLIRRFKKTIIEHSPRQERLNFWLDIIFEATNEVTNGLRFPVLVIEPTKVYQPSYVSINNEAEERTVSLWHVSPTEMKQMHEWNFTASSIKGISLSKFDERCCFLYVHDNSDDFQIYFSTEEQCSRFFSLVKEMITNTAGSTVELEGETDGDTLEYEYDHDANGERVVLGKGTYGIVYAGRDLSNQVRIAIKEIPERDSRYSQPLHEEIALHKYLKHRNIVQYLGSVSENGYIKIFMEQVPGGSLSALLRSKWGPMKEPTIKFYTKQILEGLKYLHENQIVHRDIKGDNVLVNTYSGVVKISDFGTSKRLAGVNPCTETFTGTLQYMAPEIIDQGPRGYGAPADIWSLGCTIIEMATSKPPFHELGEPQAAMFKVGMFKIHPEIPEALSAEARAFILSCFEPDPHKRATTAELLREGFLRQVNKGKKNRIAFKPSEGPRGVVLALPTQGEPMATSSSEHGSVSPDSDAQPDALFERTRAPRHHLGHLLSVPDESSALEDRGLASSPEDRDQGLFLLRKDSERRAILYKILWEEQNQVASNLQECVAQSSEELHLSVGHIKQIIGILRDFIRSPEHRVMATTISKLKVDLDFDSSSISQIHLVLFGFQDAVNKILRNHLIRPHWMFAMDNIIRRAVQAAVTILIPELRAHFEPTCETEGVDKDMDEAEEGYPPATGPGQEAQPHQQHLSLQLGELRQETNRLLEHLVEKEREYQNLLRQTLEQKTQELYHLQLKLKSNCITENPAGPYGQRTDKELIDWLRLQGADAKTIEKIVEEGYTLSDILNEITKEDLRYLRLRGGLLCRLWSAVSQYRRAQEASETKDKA
Description: Selectivity interaction (KinomeScan (DiscoverX)) EUB0000092b MAP3K15. To be noted: at 10 µM.

Experiment [8] concerns the target T2, MAP kinase-activated protein kinase 5 (Homo sapiens) (UniProt Q8IW41).
T2 sequence (whole entry): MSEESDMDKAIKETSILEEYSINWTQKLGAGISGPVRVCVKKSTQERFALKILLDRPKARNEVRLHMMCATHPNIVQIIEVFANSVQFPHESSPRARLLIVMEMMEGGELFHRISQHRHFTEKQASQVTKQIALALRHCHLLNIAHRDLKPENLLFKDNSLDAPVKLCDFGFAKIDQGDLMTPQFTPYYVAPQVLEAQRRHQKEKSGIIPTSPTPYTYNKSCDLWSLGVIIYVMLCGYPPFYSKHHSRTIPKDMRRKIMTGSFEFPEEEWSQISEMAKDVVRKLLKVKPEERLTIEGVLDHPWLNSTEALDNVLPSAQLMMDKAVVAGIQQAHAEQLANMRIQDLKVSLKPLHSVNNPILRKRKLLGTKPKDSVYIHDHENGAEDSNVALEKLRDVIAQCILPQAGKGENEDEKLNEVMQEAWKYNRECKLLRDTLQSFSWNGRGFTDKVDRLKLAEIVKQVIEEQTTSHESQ
Description: Selectivity interaction (Upstate Kinase Profiler service (Millipore)) EUB0000056c MAPKAPK5. To be noted: at 1 µM.

For experiment [9], the target named is Histone-lysine N-methyltransferase 2A (Homo sapiens) (UniProt Q03164). Description: Selectivity interaction (Methyltransferase screen (radiometric assays, panel of 8 PRMTs, 21 protein lysine methyltransferases, 3 DNA methyltransferases, and one RNA methyltransferase)) EUB0000272b MLL.

Sequence of Wee1-like protein kinase (Homo sapiens) (P30291 whole entry, looked up): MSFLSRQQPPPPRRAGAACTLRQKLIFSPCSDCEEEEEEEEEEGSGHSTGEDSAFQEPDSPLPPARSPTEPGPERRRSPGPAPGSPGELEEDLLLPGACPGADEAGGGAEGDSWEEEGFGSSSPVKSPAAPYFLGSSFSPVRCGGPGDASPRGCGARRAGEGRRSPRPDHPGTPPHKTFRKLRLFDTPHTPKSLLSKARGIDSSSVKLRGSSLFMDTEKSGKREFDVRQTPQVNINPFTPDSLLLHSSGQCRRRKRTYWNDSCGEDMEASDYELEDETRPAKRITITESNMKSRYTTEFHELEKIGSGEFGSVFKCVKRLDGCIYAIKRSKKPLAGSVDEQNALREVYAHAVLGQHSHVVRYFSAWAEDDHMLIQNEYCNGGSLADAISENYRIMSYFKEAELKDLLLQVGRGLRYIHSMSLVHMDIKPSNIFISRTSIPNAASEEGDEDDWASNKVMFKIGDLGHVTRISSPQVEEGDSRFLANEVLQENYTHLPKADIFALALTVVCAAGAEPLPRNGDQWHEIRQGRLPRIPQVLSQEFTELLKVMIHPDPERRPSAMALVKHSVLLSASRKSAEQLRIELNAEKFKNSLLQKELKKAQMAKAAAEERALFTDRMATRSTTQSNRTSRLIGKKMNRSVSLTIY
Sequence of Focal adhesion kinase 1 (Q05397 2-1052 limits assumed): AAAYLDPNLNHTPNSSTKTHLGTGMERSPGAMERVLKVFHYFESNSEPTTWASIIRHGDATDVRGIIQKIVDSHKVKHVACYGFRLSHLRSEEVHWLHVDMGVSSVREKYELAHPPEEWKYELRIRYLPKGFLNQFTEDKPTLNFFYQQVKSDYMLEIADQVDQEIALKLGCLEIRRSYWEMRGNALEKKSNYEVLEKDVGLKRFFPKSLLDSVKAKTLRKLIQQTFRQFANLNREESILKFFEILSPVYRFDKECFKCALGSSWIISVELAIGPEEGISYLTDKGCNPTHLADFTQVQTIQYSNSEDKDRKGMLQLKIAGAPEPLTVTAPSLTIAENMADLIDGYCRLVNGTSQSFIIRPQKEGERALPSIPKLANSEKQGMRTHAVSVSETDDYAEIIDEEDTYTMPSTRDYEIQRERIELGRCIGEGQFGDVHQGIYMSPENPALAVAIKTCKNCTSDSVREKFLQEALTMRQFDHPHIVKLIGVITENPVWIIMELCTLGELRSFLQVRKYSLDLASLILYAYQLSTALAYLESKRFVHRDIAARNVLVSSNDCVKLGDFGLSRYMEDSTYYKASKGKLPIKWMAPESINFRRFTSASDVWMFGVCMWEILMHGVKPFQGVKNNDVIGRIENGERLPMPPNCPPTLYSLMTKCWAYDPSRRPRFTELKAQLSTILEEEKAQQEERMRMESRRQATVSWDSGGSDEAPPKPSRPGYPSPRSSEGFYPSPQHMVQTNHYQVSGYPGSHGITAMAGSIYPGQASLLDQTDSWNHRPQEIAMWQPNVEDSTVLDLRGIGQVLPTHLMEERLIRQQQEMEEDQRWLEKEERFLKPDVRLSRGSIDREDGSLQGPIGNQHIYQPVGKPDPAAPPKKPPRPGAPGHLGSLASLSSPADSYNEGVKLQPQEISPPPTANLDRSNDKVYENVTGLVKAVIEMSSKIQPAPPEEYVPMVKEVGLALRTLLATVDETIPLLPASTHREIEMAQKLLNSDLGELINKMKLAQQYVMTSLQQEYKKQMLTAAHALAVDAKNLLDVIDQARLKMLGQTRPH
Sequence of Glycogen synthase kinase-3 alpha (P49840 2-483 limits assumed): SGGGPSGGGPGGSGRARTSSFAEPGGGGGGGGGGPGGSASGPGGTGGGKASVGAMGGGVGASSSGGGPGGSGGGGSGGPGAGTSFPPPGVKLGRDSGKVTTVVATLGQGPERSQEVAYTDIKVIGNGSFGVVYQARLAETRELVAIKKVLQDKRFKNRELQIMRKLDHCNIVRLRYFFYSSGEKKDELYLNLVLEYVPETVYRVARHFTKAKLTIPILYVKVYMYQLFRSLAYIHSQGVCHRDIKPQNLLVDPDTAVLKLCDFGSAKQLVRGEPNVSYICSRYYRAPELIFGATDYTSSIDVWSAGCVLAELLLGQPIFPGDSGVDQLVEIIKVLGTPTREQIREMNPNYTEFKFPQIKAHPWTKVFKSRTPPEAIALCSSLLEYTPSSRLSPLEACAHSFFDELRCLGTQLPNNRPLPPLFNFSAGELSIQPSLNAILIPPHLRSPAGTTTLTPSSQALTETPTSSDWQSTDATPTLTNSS
Sequence of SRSF protein kinase 1 (Q96SB4 whole entry): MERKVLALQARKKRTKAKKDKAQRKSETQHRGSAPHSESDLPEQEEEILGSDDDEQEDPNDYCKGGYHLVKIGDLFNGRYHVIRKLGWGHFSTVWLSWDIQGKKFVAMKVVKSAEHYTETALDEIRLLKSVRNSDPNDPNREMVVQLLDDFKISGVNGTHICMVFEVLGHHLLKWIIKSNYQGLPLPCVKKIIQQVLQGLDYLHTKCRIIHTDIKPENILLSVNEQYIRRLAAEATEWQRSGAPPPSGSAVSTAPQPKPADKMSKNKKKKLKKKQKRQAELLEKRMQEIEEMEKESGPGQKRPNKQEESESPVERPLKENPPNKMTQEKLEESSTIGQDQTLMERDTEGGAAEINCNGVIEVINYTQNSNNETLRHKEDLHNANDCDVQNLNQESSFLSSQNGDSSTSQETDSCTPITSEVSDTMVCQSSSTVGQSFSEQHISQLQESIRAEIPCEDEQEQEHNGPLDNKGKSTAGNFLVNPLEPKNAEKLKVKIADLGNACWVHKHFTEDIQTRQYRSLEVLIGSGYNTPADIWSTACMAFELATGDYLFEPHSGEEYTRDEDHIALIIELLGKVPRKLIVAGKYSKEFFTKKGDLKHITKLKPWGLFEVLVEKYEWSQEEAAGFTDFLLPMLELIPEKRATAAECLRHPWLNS
Sequence of Serine/threonine-protein kinase B-raf (Homo sapiens) (P15056 whole entry): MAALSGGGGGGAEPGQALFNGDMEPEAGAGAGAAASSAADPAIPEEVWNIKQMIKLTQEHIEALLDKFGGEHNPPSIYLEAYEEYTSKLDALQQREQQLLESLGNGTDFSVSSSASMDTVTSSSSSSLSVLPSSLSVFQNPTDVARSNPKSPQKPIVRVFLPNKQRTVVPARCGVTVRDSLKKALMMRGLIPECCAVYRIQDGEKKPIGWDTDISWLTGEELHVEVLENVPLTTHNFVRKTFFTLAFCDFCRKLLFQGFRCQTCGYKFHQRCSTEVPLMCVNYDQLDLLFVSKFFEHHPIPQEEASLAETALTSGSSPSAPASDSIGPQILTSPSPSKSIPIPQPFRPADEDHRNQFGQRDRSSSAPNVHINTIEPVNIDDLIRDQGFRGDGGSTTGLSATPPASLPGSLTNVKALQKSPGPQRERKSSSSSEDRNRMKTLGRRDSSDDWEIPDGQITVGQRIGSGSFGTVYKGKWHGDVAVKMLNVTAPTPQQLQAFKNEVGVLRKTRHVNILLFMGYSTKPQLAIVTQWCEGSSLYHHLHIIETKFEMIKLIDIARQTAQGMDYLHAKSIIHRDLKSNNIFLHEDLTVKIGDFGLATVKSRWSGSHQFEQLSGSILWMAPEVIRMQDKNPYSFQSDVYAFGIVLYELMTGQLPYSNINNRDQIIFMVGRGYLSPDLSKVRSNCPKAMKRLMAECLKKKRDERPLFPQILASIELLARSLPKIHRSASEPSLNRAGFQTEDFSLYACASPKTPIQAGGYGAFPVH
Sequence of Serine/threonine-protein kinase 16 (O75716 whole entry): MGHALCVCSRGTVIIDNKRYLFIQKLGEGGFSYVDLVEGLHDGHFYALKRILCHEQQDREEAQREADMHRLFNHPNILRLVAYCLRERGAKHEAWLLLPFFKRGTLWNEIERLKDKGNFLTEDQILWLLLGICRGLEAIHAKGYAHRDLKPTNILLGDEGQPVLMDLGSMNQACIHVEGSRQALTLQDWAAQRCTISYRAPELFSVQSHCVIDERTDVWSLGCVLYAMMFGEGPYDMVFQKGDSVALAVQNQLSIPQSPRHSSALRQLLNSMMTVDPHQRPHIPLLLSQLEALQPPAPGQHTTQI
Sequence of Wee1-like protein kinase 2 (Homo sapiens) (P0C1S8 whole entry, looked up): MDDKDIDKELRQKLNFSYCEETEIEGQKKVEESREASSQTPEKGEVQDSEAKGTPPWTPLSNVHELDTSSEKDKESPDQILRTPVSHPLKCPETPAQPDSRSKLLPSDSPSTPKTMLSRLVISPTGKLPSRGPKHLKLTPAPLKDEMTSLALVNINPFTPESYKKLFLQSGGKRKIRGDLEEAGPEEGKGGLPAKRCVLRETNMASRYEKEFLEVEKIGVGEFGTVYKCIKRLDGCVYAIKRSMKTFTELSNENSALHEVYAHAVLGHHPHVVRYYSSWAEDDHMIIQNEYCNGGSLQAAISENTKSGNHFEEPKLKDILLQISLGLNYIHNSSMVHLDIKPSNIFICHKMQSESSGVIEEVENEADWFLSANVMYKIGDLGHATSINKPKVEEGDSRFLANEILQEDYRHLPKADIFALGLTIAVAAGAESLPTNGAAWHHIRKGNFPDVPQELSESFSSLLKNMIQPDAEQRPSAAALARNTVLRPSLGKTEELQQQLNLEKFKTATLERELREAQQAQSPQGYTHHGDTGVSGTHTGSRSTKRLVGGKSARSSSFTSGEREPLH

In experiment [1], `O=C(NOC[C@H](O)CO)c1ccc(F)c(F)c1Nc1ccc(I)cc1F` gave a % of control of 99%.

On to `N#Cc1cccc(-c2c[nH]c3ncnc(N4CCOCC4)c23)c1`, for which the % of inhibition in experiment [2] was 7%. As to `CC[C@@H]1[C@H](F)C(=O)N[C@@H]1COc1nccc2cc(C(N)=O)c(OC)cc12` [ZIMLOVISERTIB], the % of inhibition in [3] (at 0.01 µM) was 25.6%; in [3] (at 0.04 µM), -1.5%; in experiment [3] (at 0.2 µM), 3.2%; in experiment [3] (at 1 µM) it was -5.7%; in experiment [3] (at 5 µM), 35.6%; on SRSF protein kinase 1 it was -1.1%. Moreover, the % of inhibition in experiment [4] stood at 2.21%. `CCN(CC)CCCCNc1ncc2cc(-c3cc(OC)cc(OC)c3)c(NC(=O)NC(C)(C)C)nc2n1`: the % of control in experiment [5] came to 100%.

On to `COc1cc(Nc2nc(C)cc(-c3cnn4nc(OC)ccc34)n2)cc(C(F)(F)F)c1`, for which the % of control in [6] was 100%. On to `C=CC(=O)Nc1cccc(C(=O)Nc2ccc(Nc3cc(-c4[nH]c(SC)nc4C)ccn3)cc2)c1`, for which the % of control at Focal adhesion kinase 1 (at 1 µM) turned out to be 106%; at Focal adhesion kinase 1 (at 5 µM) it was 92%. `CCC(=O)N1CCN(c2ccc(-n3c(=O)ccc4cnc5ccc(-c6cnc7ccccc7c6)cc5c43)cc2C(F)(F)F)CC1` displayed a % of control in experiment [7] of 100%. With `Cc1ccc(-c2ccc3c(ccc4sc5c(c43)NC[C@@H](C)NC5=O)n2)cn1`, the % of inhibition in [8] came out at 99%. In the case of `Cc1cc(C)cc([C@H]2c3cc(C)ccc3NC(=O)CN2C(=O)c2ccc(Br)s2)c1`, the % of activity in [9] (at 1 µM) amounted to 99.3%; in experiment [9] (at 10 µM), 100%.
